Results from US6511997B1, “Aminopyrazole derivatives” (Teikoku Hormone Mfg. Co., Ltd., priority 1998, dated 2003).

| Compound | melting point [°C] |
| --- | --- |
| CN(C(=O)Cc1ccccc1)c1nn(C)c(-c2ccc(F)cc2)c1-c1ccncc1 [Example 119, 5-(4-fluorophenyl)-1-methyl-3-(N-methyl-N-phenylacetylamino)-4-(4-pyridyl)pyrazole] | 169.8 to 171.1 |
| Cn1nc(-c2ccc(F)cc2)c(-c2ccncc2)c1NC(=O)Cc1ccccc1Br [Example 57, 5-(2-Bromophenylacetylamino)-3-(4-fluorophenyl)-1-methyl-4-(4-pyridyl)pyrazole] | 223.8 to 227.6 |
| O=C(Cc1ccccc1)Nc1n[nH]c(-c2ccc(F)cc2)c1-c1ccncc1 [Example 1, 5-(4-fluorophenyl)-3-phenylacetylamino-4-(4-pyridyl)pyrazole] | 289.2 to 290.4 |
| Cn1nc(-c2ccc3c(c2)OCO3)c(-c2ccncc2)c1NC(=O)Cc1ccccc1 [Example 109, 1-methyl-3-(3,4-methylenedioxyphenyl)-5-phenylacetylamino-4-(4-pyridyl)pyrazole] | 127.5 to 132.1 |
| Cn1nc(-c2ccc(F)cc2)c(-c2ccncc2)c1NC(=O)Cc1cccc(F)c1 [Example 61, 3-(4-Fluorophenyl)-5-(3-fluorophenylacetylamino)-1-methyl-4-(4-pyridyl)pyrazole] | 196.9 to 199.1 |
| Cn1nc(-c2ccc(F)cc2)c(-c2ccncc2)c1NC(=O)Cc1ccccc1F [Example 60, 3-(4-Fluorophenyl)-5-(2-fluorophenylacetylamino)-1-methyl-4-(4-pyridyl)pyrazole] | 196.8 to 198.1 |
| COc1cc(CC(=O)Nc2c(-c3ccncc3)c(-c3ccc(F)cc3)nn2C)cc(OC)c1OC [Example 54, 3-(4-Fluorophenyl)-1-methyl-4-(4-pyridyl)-5-(3,4,5-trimethoxyphenylacetylamino)pyrazole] | 178.1 to 180.4 |
| O=C(Cc1ccccc1Cl)Nc1c(-c2ccncc2)c(-c2ccc(F)cc2)nn1-c1ccccc1 [Example 107, 5-(2-chlorophenylacetylamino)-3-(4-fluorophenyl)-1-phenyl-4-(4-pyridyl)pyrazole] | 265.2 to 268 |
| C[C@H](NC(=O)OCc1ccccc1)C(=O)Nc1n[nH]c(-c2ccc(F)cc2)c1-c1ccncc1 [Example 84, 3-(N′-carbobenzoxy-L-alanylamino)-5-(4-fluorophenyl)-4-(4-pyridyl)pyrazole] | 190 to 191.3 |
